US10525041B2, “Fluoroalkyl-substituted aryltriazole derivatives and uses thereof” (BAYER PHARMA AKTIENGESELLSCHAFT, priority 2016, dated 2020)

Tests used:
[1] = biological target: T1, human V2 receptor (Homo sapiens, UniProt P30518); assay: Cellular in vitro assay for vasopressin receptor activity, V2 cell line (CRE-luciferase); format: cell-based; conditions: CHO cell line transfected with human V2 receptor; agonist [Arg8]-vasopressin at EC50 concentration, 3 hours; read-out: IC50hV2
T1 construct: expressed in transfected cells; host or cells: CHO K1 (ATCC) line expressing firefly luciferase under a CRE-responsive promoter
Description: (§1) B-1. Cellular In Vitro Assay for Determining Vasopressin Receptor Activity
(§2) The identification of agonists and antagonists of the V1a and V2 vasopressin receptors from humans, rats and dogs as well as the quantification of the activity of the compounds of the invention is carried out using recombinant cell lines. These cell lines originally derive from a hamster's ovary epithelial cell (Chinese Hamster Ovary, CHO K1, ATCC: American Type Culture Collection, Manassas, Va. 20108, USA). The test cell lines constitutively express the human, rat or dog V1a or V2 receptors. In case of the Gαq-coupled V1a receptors, cells are also stably transfected with a modified form of the calcium-sensitive photoproteins aequorin (human and rat V1a) or obelin (dog V1a), which, after reconstitution with the cofactor coelenterazine, emit light when there are increases in free calcium concentrations [Rizzuto R, Simpson A W, Brini M, Pozzan T, Nature 358, 325-327 (1992); Illarionov B A, Bondar V S, Illarionova V A, Vysotski E S, Gene 153 (2), 273-274 (1995)]. The resulting vasopressin receptor cells react to stimulation of the recombinantly expressed V1a receptors by intracellular release of calcium ions, which can be quantified by the resulting photoprotein luminescence. The Gs-coupled V2 receptors are stably transfected into cell lines expressing the gene for firefly luciferase under control of a CRE-responsible promoter. Activation of V2 receptors induces the activation of the CRE-responsive promoter via cAMP increase, thereby inducing the expression of firefly luciferase. The light emitted by photoproteins of V1a cell lines as well as the light emitted by firefly luciferase of V2 cell lines corresponds to the activation or inhibition of the respective vasopressin receptor. The bioluminescence of the cell lines is detected using a suitable luminometer [Milligan G, Marshall F, Rees S, Trends in Pharmacological Sciences 17, 235-237 (1996)].
Vasopressin V2 Receptor Cell Lines:
On the day before the assay, the cells are plated out in culture medium (DMEM/F12, 2% FCS, 2 mM glutamine, 10 mM HEPES) in 384-well microtiter plates and kept in a cell incubator (96% humidity, 5% v/v CO2, 37° C.). On the day of the assay, test compounds in various concentrations and the agonist [Arg^8]-vasopressin at EC50 concentration are added together to the wells, and plates are incubated for 3 hours in a cell incubator. Upon addition of the cell lysis reagent Triton™ and the substrate luciferin, luminescence of firefly luciferase is measured in a luminometer.
(§3) Table 1A below lists individual IC50 values for the compounds of the invention (including racemic mixtures as well as separated enantiomers) that were obtained from cell lines transfected with the human V1a or V2 receptor: […]

[2] = biological target: T2, human V1a receptor (Homo sapiens, UniProt P37288); assay: Cellular in vitro assay for vasopressin receptor activity, V1a cell line (aequorin luminescence); format: cell-based; conditions: for IC50: CHO cell line transfected with human V1a receptor, agonist [Arg8]-vasopressin at EC50 concentration, read-out: IC50hV1a; for ratio IC50 hV2/hV1a: ratio of the IC50 on human V2 to the IC50 on human V1a
T2 construct: expressed in transfected cells; host or cells: CHO K1 (ATCC), also stably transfected with a modified aequorin
Description: as §1, §2
Vasopressin V1a Receptor Cell Lines:
On the day before the assay, the cells are plated out in culture medium (DMEM/F12, 2% FCS, 2 mM glutamine, 10 mM HEPES, 5 μg/ml coelenterazine) in 384-well microtiter plates and kept in a cell incubator (96% humidity, 5% v/v CO2, 37° C.). On the day of the assay, test compounds in various concentrations are placed for 10 minutes in the wells of the microtiter plate before the agonist [Arg^8]-vasopressin at EC50 concentration is added. The resulting light signal is measured immediately in a luminometer.
as §3

T1 sequence (P30518 whole entry): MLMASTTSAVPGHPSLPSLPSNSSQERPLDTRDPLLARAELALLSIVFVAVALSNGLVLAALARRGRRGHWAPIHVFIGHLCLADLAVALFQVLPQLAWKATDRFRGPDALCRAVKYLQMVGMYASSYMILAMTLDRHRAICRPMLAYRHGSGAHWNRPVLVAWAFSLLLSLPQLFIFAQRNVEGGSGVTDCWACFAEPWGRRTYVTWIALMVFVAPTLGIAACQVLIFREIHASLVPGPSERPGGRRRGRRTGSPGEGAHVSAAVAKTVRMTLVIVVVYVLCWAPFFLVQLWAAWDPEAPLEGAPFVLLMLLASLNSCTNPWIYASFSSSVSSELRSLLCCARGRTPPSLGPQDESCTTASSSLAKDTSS
T2 sequence (P37288 whole entry): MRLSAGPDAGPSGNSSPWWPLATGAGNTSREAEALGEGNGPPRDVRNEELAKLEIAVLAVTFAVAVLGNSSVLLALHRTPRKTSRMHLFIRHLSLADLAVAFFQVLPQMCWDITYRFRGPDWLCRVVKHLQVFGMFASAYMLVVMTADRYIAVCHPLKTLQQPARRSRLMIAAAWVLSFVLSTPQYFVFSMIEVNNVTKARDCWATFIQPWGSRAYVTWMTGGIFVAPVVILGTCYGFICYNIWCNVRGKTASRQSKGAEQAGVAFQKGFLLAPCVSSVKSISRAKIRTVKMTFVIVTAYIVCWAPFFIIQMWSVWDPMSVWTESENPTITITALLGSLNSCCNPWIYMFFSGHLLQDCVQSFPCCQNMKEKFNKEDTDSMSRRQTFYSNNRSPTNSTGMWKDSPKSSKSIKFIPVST

Structure (SMILES) | IC50 [1] | IC50 [2] | ratio IC50 hV2/hV1a [2]
CC(F)c1nc(Cn2nc(-c3ccc(Cl)cc3)n(C[C@H](O)C(F)(F)F)c2=O)nn1-c1ncccc1Cl (single isomer, unassigned) [Example 20] | 5.95 nM | 1.35 nM | 4.4
CC(F)c1nc(Cn2nc(-c3ccc(Cl)cc3)n(C[C@H](O)C(F)(F)F)c2=O)nn1-c1ccccc1OC(F)(F)F (single isomer, unassigned) [Example 26] | 17.5 nM | 3 nM | 5.8
CCc1ccccc1-n1nc(Cn2nc(-c3ccc(Cl)cc3)n(C[C@H](O)C(F)(F)F)c2=O)nc1C(C)F (single isomer, unassigned) [Example 30] | 1.9 nM | 1.85 nM | 1.0
CC(F)c1nc(Cn2nc(-c3ccc(Cl)cc3)n(C[C@H](O)C(F)(F)F)c2=O)nn1-c1cnccc1Cl (single isomer, unassigned) [Example 6] | 2.37 nM | 0.48 nM | 5.0
CC(F)c1nc(Cn2nc(-c3ccc(Cl)cc3)n(C[C@H](O)C(F)(F)F)c2=O)nn1-c1cccc(Cl)c1 (single isomer, unassigned) [Example 18] | 3.85 nM | 60 nM | 0.1
CC(F)c1nc(Cn2nc(-c3ccc(Cl)cc3)n(C[C@H](O)C(F)(F)F)c2=O)nn1-c1cnccc1C(F)(F)F (single isomer, unassigned) [Example 8] | 19.8 nM | 1.25 nM | 15.8

Further lines, results first:

IC50 [1] | IC50 [2] | ratio IC50 hV2/hV1a [2] | Structure (SMILES)
8.9 nM | 2.4 nM | 3.7 | CC(F)c1nc(Cn2nc(-c3ccc(Cl)cc3)n(C[C@H](O)C(F)(F)F)c2=O)nn1-c1ccccc1OC(F)F (single isomer, unassigned) [Example 32]
7.85 nM | 1.8 nM | 4.4 | CCOc1ccccc1-n1nc(Cn2nc(-c3ccc(Cl)cc3)n(C[C@H](O)C(F)(F)F)c2=O)nc1C(C)(F)F [Example 67, 5-(4-Chlorophenyl)-2-{[5-(1,1-difluoroethyl)-1-(2-ethoxyphenyl)-1H-1,2,4-triazol-3-yl]methyl}-4-[(2S)-3,3,3-trifluoro-2-hydroxypropyl]-2,4-dihydro-3H-1,2,4-triazol-3-one]
0.45 nM | 0.85 nM | 0.5 | CSc1ccccc1-n1nc(Cn2nc(-c3ccc(Cl)cc3)n(C[C@H](O)C(F)(F)F)c2=O)nc1C(C)F (mixture of isomers) [Example 49, 5-(4-Chlorophenyl)-2-({5-[1-fluoroethyl]-1-[2-(methylsulfanyl)phenyl]-1H-1,2,4-triazol-3-yl}methyl)-4-[(2S)-3,3,3-trifluoro-2-hydroxypropyl]-2,4-dihydro-3H-1,2,4-triazol-3-one]
3.15 nM | 0.91 nM | 3.5 | NCC(F)(F)c1nc(Cn2nc(-c3ccc(Cl)cc3)n(C[C@H](O)C(F)(F)F)c2=O)nn1-c1ccccc1Cl.O=CO [Example 76, 2-{[5-(2-Amino-1,1-difluoroethyl)-1-(2-chlorophenyl)-1H-1,2,4-triazol-3-yl]methyl}-5-(4-chlorophenyl)-4-[(2S)-3,3,3-trifluoro-2-hydroxypropyl]-2,4-dihydro-3H-1,2,4-triazol-3-one]
10 nM | 3.35 nM | 3.0 | CC(F)c1nc(Cn2nc(-c3ccc(Cl)cc3)n(C[C@H](O)C(F)(F)F)c2=O)nn1-c1ccccc1[N+](=O)[O-] (mixture of isomers) [Example 37, 5-(4-Chlorophenyl)-2-({5-[1-fluoroethyl]-1-(2-nitrophenyl)-1H-1,2,4-triazol-3-yl}methyl)-4-[(2S)-3,3,3-trifluoro-2-hydroxypropyl]-2,4-dihydro-3H-1,2,4-triazol-3-one]
